Measurements reported in publication PMC7911614, “Development and Characterization of a Tacrolimus/Hydroxypropyl-β-Cyclodextrin Eye Drop” (Pharmaceutics, 2021).
In brackets after ≈: the same amount, converted by molar mass. Where two headings read alike, the source gives them in different places.

How the values were obtained:
[1] = parameters: method as in PMID 29751694; details: cited from earlier work
[2] = parameters: method as in PMID 32599134, PMID 24015381; details: cited from earlier work
[3] = NMR saturation transfer difference (STD) study of tacrolimus/HPβCD binding; details: D2O, read-out: Kd of tacrolimus/HPβCD binding equilibrium
Experimental: NMR experiments were conducted at two different temperature conditions, 278 and 298 K, on a Bruker NEO 17.6 T spectrometer (proton resonance 750 MHz) (Billerica, MA, USA), equipped with a ^1H/^13C/^15N triple resonance PA-TXI probe with a deuterium lock channel and a shielded Pulse Field Gradient (PFG) z-gradient. The spectrometer control software was TopSpin 4.0 (Billerica, MA, USA, 2020). The reported chemical shifts are referenced to the lock deuterium solvent. Spectra were processed and analyzed using Mestrenova v14.0 software (Mestrelab Research S.L., Santiago de Compostela, Spain, 2019).
One-dimensional saturation transfer difference ^1H spectra (STD) were measured. The experiment consisted of a selective saturation pulse train, a WET selective solvent suppression module and a 90-degree hard-pulse followed by fid (free induction decay) acquisition. The selective saturation consisted of a train of soft Gaussian-shaped pulses of 50-ms duration with a 1-ms interpulse delay. The selective saturation was applied during 2 s at a specific frequency of the ^1H spectrum, covering a region of the spectrum of ± 125 Hz around the chosen frequency (i.e., ± 0.17 ppm in a 750 spectrometer). The STD^off saturation was applied at 20 ppm. […] The STD^on and STD^off scans were measured in alternate scans and subtracted by the phase cycling, providing the subtracted STD^off-on spectra. […]

T cell proliferation = test system: T cell proliferation; parameters: method as in PMID 22511024; details: cited from earlier work
physchem = format: physicochemical
Experimental: A phase solubility diagram was used to estimate the stability constant (K) of the tacrolimus/HPβCD inclusion complex. The solubility measurements were carried out following the previous work of our research group, described by Anguiano-Igea et al.. This protocol was adjusted to the Higuchi and Connors phase solubility model. A solubility study was carried out by adding an excess amount of the tacrolimus powder to MilliQ® aqueous solutions containing increasing concentrations of HPβCD (from 0 to 400 mg/mL). The vials containing these suspensions were then shaken in a VWR incubated mini-shaker (VWR International, Radnor, PA, USA) at 25 °C and 250 rpm for 7 days until reaching an equilibrium. […]
Tacrolimus concentration was determined for each sample using an HPLC system (Agilent 1260 series; Agilent Technologies®, Santa Clara, CA, USA) equipped with a Diode Array Detector HS, a solvent delivery quaternary pump system, 400 bar maximum pressure and an autosampler. […] A 210-nm wavelength was employed for the tacrolimus quantification. […]
These constants values were calculated using the following Equation (1):S = S0 +(K1:1·S0 + K1:1·K1:2·S0·[HPβCD])·[HPβCD],(1) where S is the total solubility, S0 is the free drug solubility and K1:1 and K1:2 are the stability constants of the complex tacrolimus/HPβCD. […]

Kd ([3]; 278 K, inferred from STD response) [mM]	Kd ([3]; 298 K, inferred from absence of STD response) [mM]	K1:2 stability constant of tacrolimus/HPβCD complex (physchem) [M⁻¹]	solubility at 7 days (physchem) [µg/mL]	Structure (SMILES)	surface tension in solution [1]	water solubility [2] [µg/mL]	immunosuppressive activity, times more potent than cyclosporine A (T cell proliferation) [times]
–	–	–	–	CC(O)COC[C@H]1O[C@@H]2O[C@H]3[C@H](O)[C@@H](O)[C@@H](O[C@H]4[C@H](O)[C@@H](O)[C@@H](O[C@H]5[C@H](O)[C@@H](O)[C@@H](O[C@H]6[C@H](O)[C@@H](O)[C@@H](O[C@H]7[C@H](O)[C@@H](O)[C@@H](O[C@H]8[C@H](O)[C@@H](O)[C@@H](O[C@H]1[C@H](O)[C@H]2O)O[C@@H]8COCC(C)O)O[C@@H]7COCC(C)O)O[C@@H]6COCC(C)O)O[C@@H]5COCC(C)O)O[C@@H]4COCC(C)O)O[C@@H]3COCC(C)O (stereo partly drawn) [HPβCD, 2-hydroxypropyl-β-cyclodextrin]	54.8–57.5 mN/m	–	–
< 1	> 10	2.1 ± 0.6	4 ± 0.67 (≈ 4.97 µM)	C=CC[C@@H]1/C=C(\C)C[C@H](C)C[C@H](OC)[C@H]2O[C@@](O)(C(=O)C(=O)N3CCCC[C@H]3C(=O)O[C@H](/C(C)=C/[C@@H]3CC[C@@H](O)[C@H](OC)C3)[C@H](C)[C@@H](O)CC1=O)[C@H](C)C[C@@H]2OC [Tacrolimus]	–	1 to 12	100
